Laboratory results taken from US20100137440A1, “LYSINE RIBOSWITCHES, STRUCTURE-BASED COMPOUND DESIGN WITH LYSINE RIBOSWITCHES, AND METHODS AND COMPOSITIONS FOR USE OF AND WITH LYSINE RIBOSWITCHES” (Yale University, priority 2006, published 2010).
Entries after “also recorded” stand apart in the source; their conditions may differ.

Experiments:
[1] = system: 179-nucleotide receptor domain (179 lysC) of the lysC lysine riboswitch; assay: In-line probing assay, ligand binding to 179 lysC; design: species or system B. subtilis; conditions: for binding to 179 lysC / lysine aptamer (in words): in vitro
B. subtilis 168 (1A1) = assay: Antibacterial activity assay (growth curves, MIC) in chemically defined minimal media; assay type: cell-based; conditions: for bacterial growth in minimal medium: 100 μM compound, chemically-defined minimal medium; for complete inhibition of bacterial growth for 24 h: minimal medium
[2] = system: lysC lysine riboswitch upstream of lacZ reporter gene; assay: In vivo reporter gene (β-galactosidase) expression assay, wild-type lysC riboswitch; assay type: cell-based, B. subtilis; conditions: for repression of β-galactosidase reporter gene expression controlled by lysC riboswitch: 3 h growth in presence of compound (5 mM, FIG. 3c); for reporter gene expression at the compound's MIC: at respective MICs
[3] = system: B. subtilis 168 strain 1A1 (WT); assay: Sporulation assay, WT strain; conditions: for % Viable spore formation, WT: spores after heat shock relative to CFU before heat shock
B. subtilis M2 strain = assay: Sporulation assay, M2 strain; conditions: 2 mM analog; spores after heat shock relative to CFU before heat shock
[4] = system: B. subtilis lysine auxotroph strain 1A40; assay type: cell-based; conditions: 1 mM compound, 3 h, minimal media
[5] = system: 179-nucleotide receptor domain (179 lysC) of the lysC lysine riboswitch; conditions: Sudarsan 2006; cited from earlier work
[6] = system: lysC lysine riboswitch upstream of lacZ reporter gene; conditions: Sudarsan 2006; cited from earlier work
[7] = system: resistant B. subtilis strains (M1, M2); assay: MIC toward L-4-oxalysine-resistant strains (M1, M2); assay type: cell-based; conditions: for effect of M1 and M2 mutations on susceptibility: M1 and M2 strains
[8] = system: lysC riboswitch with the M1 or M2 mutation upstream of β-galactosidase reporter; assay: Reporter gene (β-galactosidase) expression assay, M1 or M2 riboswitch constructs; assay type: cell-based, B. subtilis; conditions: high compound concentrations (lysine as high as 5 mM)
B. cereus = assay type: cell-based, Bacillus cereus; conditions: minimal medium

With `CC(=N)NCCCC[C@H](N)C(=O)O` [Compound 7, L-N^6-1-iminoethyllysine] the “binding to 179 lysC / lysine aptamer (in words)” value [1] was “strong binding”, the “bacterial growth in minimal medium” value (B. subtilis 168 (1A1)) was “fails to inhibit cell growth” and the “repression of β-galactosidase reporter gene expression controlled by lysC riboswitch” value (“repression … by lysC riboswitch” for short) [2] was “does not repress”.
With `Nc1cc(C[C@H](N)C(=O)O)ccc1O` [Compound 9, L-3-aminotyrosine] the “binding to 179 lysC / lysine aptamer (in words)” value [1] was “poor affinities; also recorded: rejected by the lysine aptamer”, the “bacterial growth in minimal medium” value (B. subtilis 168 (1A1)) was “modest level of growth inhibition activity” and the “repression … by lysC riboswitch” value [2] was “do not repress expression”. The “formation of viable spores (in words)” value [3] was “do not”, the “% Viable spore formation, WT” value ([3]; 2 mM analog) was 75% and the “% Viable spore formation, M2” value (B. subtilis M2 strain) was 75%.
With `CN[C@@H](CCCCN)C(=O)O` [Compound 11, L-N^2-methyllysine] the “binding to 179 lysC / lysine aptamer (in words)” value [1] was “does not tolerate modifications at N2”.
For `NCCCC[C@H](N)C(=O)O` [lysine, L-lysine], the Kd [1] was 360 nM, the “growth of lysine auxotroph strain 1A40” value [4] was “support growth” and the “repression … by lysC riboswitch” value [2] was “strongly repressed”.
In the case of `NCCSC[C@H](N)C(=O)O` [AEC, L-aminoethylcysteine], the “binding to the lysC riboswitch (previous report)” value [5] is listed as “bind well; also recorded: binds to the lysC riboswitch” and the “repression of lysC-regulated reporter gene (previous report)” value [6] is listed as “represses the expression”.
For `NCCOC[C@H](N)C(=O)O` [Compound 2, L-4-oxalysine], the “binding to 179 lysC / lysine aptamer (in words)” value [1] was “bind well”, the “complete inhibition of bacterial growth for 24 h” value (from here on “complete inhibition”) (B. subtilis 168 (1A1)) was “completely inhibit bacterial growth” and the “repression … by lysC riboswitch” value [2] was “significantly repress”. The “reporter gene expression at the compound's MIC” value [2] was “completely repress”, the “increase of MIC in resistant colonies” value ([7]; 24 colonies isolated by serial passage, versus wild type) was “at least 9 fold” and the “β-galactosidase expression from M1 or M2 constructs” value [8] was “fully active β-galactosidase is still expressed”. For the same molecule, the “formation of viable spores (in words)” value [3] was “inhibit the formation of viable spores”, the “% Viable spore formation, WT” value ([3]; 0.2 mM analog) was 71% and the “% Viable spore formation, WT” value ([3]; 2 mM analog) was 6%. For the same molecule, the “% Viable spore formation, M2” value (B. subtilis M2 strain) was 65%.
For `C[N+](C)(C)CCCC[C@H](N)C(=O)O` [Compound 12, L-N^6-trimethyllysine], the “binding to 179 lysC / lysine aptamer (in words)” value [1] was “no binding is observed”.
In the case of `NC/C=C/CC(N)C(=O)O` (racemic) [Compound 4, DL-trans-2,6-diamino-4-hexenoic acid], the “binding to 179 lysC / lysine aptamer (in words)” value [1] is reported as “bind well”, the “complete inhibition” value (B. subtilis 168 (1A1)) is reported as “completely inhibit bacterial growth” and the “repression … by lysC riboswitch” value [2] is reported as “significantly repress”. The “effect of M1 and M2 mutations on susceptibility” value [7] was “confer resistance”.
With `NCCS(=O)(=O)C[C@H](N)C(=O)O` [Compound 1, L-3-[(2-aminoethyl)-sulfonyl]-alanine] the “binding to 179 lysC / lysine aptamer (in words)” value [1] was “bind well”, the “complete inhibition” value (B. subtilis 168 (1A1)) was “completely inhibit bacterial growth” and the “repression … by lysC riboswitch” value [2] was “significantly repress”. For the same molecule, the “reporter gene expression at the compound's MIC” value [2] was “completely repress”, the “effect of M1 and M2 mutations on susceptibility” value [7] was “confer resistance” and the “growth inhibition of B. cereus relative to B. subtilis” value (B. cereus) was 13 fold. For the same molecule, the “β-galactosidase expression from M1 or M2 constructs” value [8] was “fully active β-galactosidase is still expressed”, the “formation of viable spores (in words)” value [3] was “inhibit the formation of viable spores” and the “% Viable spore formation, WT” value ([3]; 0.2 mM analog) was 7%. The “% Viable spore formation, WT” value ([3]; 2 mM analog) was 0% and the “% Viable spore formation, M2” value (B. subtilis M2 strain) was 17%.
For `Nc1ccccc1C(=O)C[C@H](N)C(=O)O` [Compound 10, L-2-amino-3-(2-aminobenzoyl)-propionic acid], the “binding to 179 lysC / lysine aptamer (in words)” value [1] was “poor affinities”.
In the case of `NCC(=O)CCC(N)C(=O)O` (racemic) [Compound 8, DL-5-oxolysine], the “binding to 179 lysC / lysine aptamer (in words)” value [1] is reported as “poor affinity; also recorded: rejected by the lysine aptamer”, the “bacterial growth in minimal medium” value (B. subtilis 168 (1A1)) is reported as “modest level of growth inhibition activity” and the “repression … by lysC riboswitch” value [2] is reported as “do not repress expression”. The “formation of viable spores (in words)” value [3] was “do not”, the “% Viable spore formation, WT” value ([3]; 2 mM analog) was 47% and the “% Viable spore formation, M2” value (B. subtilis M2 strain) was 9%.
With `CC(=O)N[C@@H](CCCCN)C(=O)O` [Compound 5, L-N^2-acetyllysine] the “binding to 179 lysC / lysine aptamer (in words)” value [1] was “does not tolerate modifications at N2”.
In the case of `NCC(O)CC[C@H](N)C(=O)O` (stereo partly shown) [5-hydroxylysine], the “binding to the lysC riboswitch (previous report)” value [5] is given as “fails to bind”.
For `N=C(N)NCCCC[C@H](N)C(=O)O` [Compound 3, L-homoarginine], the “binding to 179 lysC / lysine aptamer (in words)” value [1] was “binds strongly” and the “growth of lysine auxotroph strain 1A40” value [4] was “supports the growth; also recorded: support growth”.
